Laboratory results published in US10697024B2, “Methods of determining IMiDS resistance in plasma cell disorders” (The Charlotte Mecklenburg Hospital Authority, priority 2016, dated 2020).

System: CD138-purified plasma cells
Experiment: GEP-based pharmacogenomics of paired plasma cells prior to and 48 hours after an IMiD test dose
Assay type: in vivo, human
Settings: MM patients, bone marrow plasma cells, 48 hr after test dose vs. baseline, SAM analysis; Affymetrix U95Av2 (thalidomide 400 mg/d, lenalidomide 25 to 50 mg/d) or U133Plus2.0 (pomalidomide 4 mg/d)
Protocol: GEP-based pharmacogenomics of paired CD138-purified plasma cells, obtained from patients prior to and 48 hours after administration of test doses of Thal (42 newly diagnosed MM), Len (18 relapsed/refractory MM), or Pom (18 relapsed/refractory MM) were compared using significance analysis of microarrays (SAM).
Plasma cell purifications and GEP, using the Affymetrix U133 Plus 2.0 microarray, were performed as previously described (Ref: Zhan F, Huang Y, Colla S, et al. The molecular classification of multiple myeloma. Blood. 2006; 108:2020-2028.). Samples were hybridized to Affymetrix expression arrays. Affymetrix U133Plus2.0 arrays were used in the pomalidomide study and Affymetrix U95Av2 arrays were used for thalidomide and lenalidomide pharmacogenomics studies. Bone marrow samples from MM patients enrolled in pharmacogenomics study were obtained prior to, and 48 hours after administration of a test dose of thalidomide (n=42 newly diagnosed), lenalidomide (n=18 relapsed/refractory) or pomalidomide (n=18 relapsed refractory). Plasma cell isolation from mononuclear cell fraction was performed by immunomagnetic bead selection with monoclonal anti-human CD138 antibody using the AutoMACS automated separation system (Miltenyi-Biotec) as previously described. Isolated bone marrow plasma cells were processed and analyzed for Gene-expression profiling (GEP) according to previously reported methods. Samples were hybridized to an Affymetrix U133Plus2.0 microarray for pomalidomide study and to an Affymetrix U95Av2 microarray for thalidomide and lenalidomide studies according to the manufacturer's recommendations and then read on GeneChip Scanner 3000 (Affymetrix). The data files were deposited in the ArrayExpress archive under the accession number E-TABM-1138. […]

| SMILES | Probe sets changed (p < 0.05) after 48 hr of IMiD treatment |
| --- | --- |
| Nc1cccc2c1C(=O)N(C1CCC(=O)NC1=O)C2=O (stereo not drawn) [Pomalidomide, pomalidomide] | 4944 |
| O=C1CCC(N2C(=O)c3ccccc3C2=O)C(=O)N1 (stereo not drawn) [Thalidomide, thalidomide] | 1398 |
| Nc1cccc2c1CN(C1CCC(=O)NC1=O)C2=O (stereo not drawn) [Lenalidomide, lenalidomide] | 1304 |
